Common to all, as to assay: level (log10 ratio to DMSO vehicle control); higher = higher biomarker level / cell amount than vehicle control
Settings in all cases: in DMSO

Compound in one experiment: O=C(O)C(F)(F)C(F)(F)C(F)(F)C(=O)O [Hexafluoroglutaric acid]
The method, then: (§1)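 BioMAP Diversity Plus panel of 12 human primary cell co-culture systems (3C, 4H, LPS, SAg, BT, BF4T, BE3C, CASM3C, HDF3CGF, KF3CT, MyoF, Mphg). Compounds were added 1 h before stimulation and left for 24 h (MyoF 48 h; BT 72 h for soluble read-outs or 6 d for IgG). Biomarkers were read by ELISA, cytotoxicity by SRB, PBMC viability and proliferation by Alamar Blue. Each well value was divided by the mean of 8 DMSO control wells on the same plate and log10 transformed; duplicate blinded samples were tested at 4 concentrations.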

Compound in experiment [1]: O=C(O)CCC(F)(F)C(F)(F)C(F)(F)F [3:3 Fluorotelomer carboxylic acid]
On the procedure:
as §1

Compound in another experiment: Cn1cnc([N+](=O)[O-])c1Sc1ncnc2[nH]cnc12 [Azathioprine]
On the procedure: as §1

Compound in experiment [2]: CNS(=O)(=O)C(F)(F)C(F)(F)C(F)(F)C(F)(F)C(F)(F)C(F)(F)C(F)(F)C(F)(F)F [N-Methylperfluorooctanesulfonamide]
On the procedure: as §1

Compound in experiment [3]: C=C(C)C(=O)OCC(F)(F)C(F)(F)C(F)(F)C(F)(F)C(F)(F)C(F)(F)C(F)(F)F
The method, then:
as §1

Compound in experiment [4]: O=C(O)C(F)(F)OC(F)(F)C(F)(F)OC(F)(F)C(F)(F)C(F)(F)C(F)(F)F [Perfluoro-3,6-dioxadecanoic acid]
The method, then:
as §1

± gives the standard deviation of the averaged measurements.

On to lMphg:IL-1alpha, for which the “level (log10)” value in the experiment with Hexafluoroglutaric acid (6700 nM) is -0.004 ± 0.0057; with Hexafluoroglutaric acid (20000 nM) it was -0.0095 ± 0.023; with Hexafluoroglutaric acid (60000 nM), -0.022 ± 0.031; in experiment [1] (6700 nM), -0.0005 ± 0.11; in experiment [1] (20000 nM), 0 ± 0.057; in experiment [1] (60000 nM), 0.028 ± 0.059. Moreover, the “level (log10)” value with Azathioprine (1400 nM) is 0.0185 ± 0.067; with Azathioprine (4200 nM) it was 0.0045 ± 0.0078; with Azathioprine (13000 nM), -0.0015 ± 0.023; with Azathioprine (38000 nM), -0.005 ± 0.057; in experiment [2] (6700 nM), 0.075 ± 0.017; in experiment [2] (20000 nM), 0.132 ± 0.035. For the same test system, the “level (log10)” value in experiment [2] (60000 nM) is 0.15 ± 0.013; in experiment [3] (6700 nM), -0.0265 ± 0.029; in experiment [3] (20000 nM) it was 0.005 ± 0.13; in experiment [4] (6700 nM), -0.0105 ± 0.056; in experiment [4] (20000 nM) it was -0.021 ± 0.011; in experiment [4] (60000 nM), 0.021 ± 0.011.

Consider lMphg:M-CSF, for which the “level (log10)” value was -0.028 ± 0.014 with Hexafluoroglutaric acid (6700 nM); -0.017 ± 0.0042 with Hexafluoroglutaric acid (20000 nM); -0.0175 ± 0.019 with Hexafluoroglutaric acid (60000 nM); -0.021 ± 0.024 in experiment [1] (6700 nM); -0.008 ± 0.0085 in experiment [1] (20000 nM); -0.0115 ± 0.0021 in experiment [1] (60000 nM). Also, the “level (log10)” value is 0.004 ± 0.018 with Azathioprine (1400 nM); -0.0045 ± 0.0021 in the experiment with Azathioprine (4200 nM); -0.032 ± 0.011 with Azathioprine (13000 nM); -0.0885 ± 0.0064 with Azathioprine (38000 nM); -0.046 ± 0.0028 in experiment [2] (6700 nM); -0.0305 ± 0.016 in experiment [2] (20000 nM). In addition, the “level (log10)” value in experiment [2] (60000 nM) is -0.0015 ± 0.021; in experiment [3] (6700 nM), -0.0185 ± 0.0035; in experiment [3] (20000 nM), -0.0025 ± 0.033; in experiment [4] (6700 nM), -0.027 ± 0.045; in experiment [4] (20000 nM), -0.0395 ± 0.0035; in experiment [4] (60000 nM), -0.0475 ± 0.026.

As for lMphg:SRB, the “level (log10)” value with Hexafluoroglutaric acid (6700 nM) was 0.0035 ± 0.00071; with Hexafluoroglutaric acid (20000 nM), 0.003 ± 0.0085; with Hexafluoroglutaric acid (60000 nM), -0.0045 ± 0.0035; in experiment [1] (6700 nM) it was -0.0305 ± 0.026; in experiment [1] (20000 nM), -0.0105 ± 0.021; in experiment [1] (60000 nM), -0.013 ± 0.0042. Besides, the “level (log10)” value with Azathioprine (1400 nM) is -0.0055 ± 0.0078; with Azathioprine (4200 nM), -0.0055 ± 0.005; with Azathioprine (13000 nM), -0.014 ± 0.0085; with Azathioprine (38000 nM), -0.0365 ± 0.0021; in experiment [2] (6700 nM), -0.021 ± 0.021; in experiment [2] (20000 nM) it was -0.0155 ± 0.00071. The “level (log10)” value in experiment [2] (60000 nM) was -0.0265 ± 0.00071; in experiment [3] (6700 nM), -0.012 ± 0.016; in experiment [3] (20000 nM), -0.015 ± 0.016; in experiment [4] (6700 nM) it was -0.0135 ± 0.011; in experiment [4] (20000 nM) it was -0.01 ± 0.0071; in experiment [4] (60000 nM), -0.0705 ± 0.013.

As to lMphg:SRB-Mphg, the “level (log10)” value is -0.0075 ± 0.019 with Hexafluoroglutaric acid (6700 nM); -0.0055 ± 0.005 in the experiment with Hexafluoroglutaric acid (20000 nM); 0.0075 ± 0.022 in the experiment with Hexafluoroglutaric acid (60000 nM); -0.019 ± 0.13 in experiment [1] (6700 nM); -0.047 ± 0.1 in experiment [1] (20000 nM); -0.048 ± 0.12 in experiment [1] (60000 nM). Also, the “level (log10)” value in the experiment with Azathioprine (1400 nM) was -0.001 ± 0.031; with Azathioprine (4200 nM), -0.0085 ± 0.0021; in the experiment with Azathioprine (13000 nM), -0.0155 ± 0.011; with Azathioprine (38000 nM), -0.0235 ± 0.0021; in experiment [2] (6700 nM), 0.0005 ± 0.0035; in experiment [2] (20000 nM), 0 ± 0.0042. Besides, the “level (log10)” value in experiment [2] (60000 nM) is -0.018 ± 0.02; in experiment [3] (6700 nM) it was 0.0095 ± 0.052; in experiment [3] (20000 nM) it was 0.0365 ± 0.03; in experiment [4] (6700 nM), 0.012 ± 0.016; in experiment [4] (20000 nM), 0.014 ± 0.024; in experiment [4] (60000 nM), -0.0125 ± 0.03.

As for lMphg:sIL-10, the “level (log10)” value with Hexafluoroglutaric acid (6700 nM) is -0.0745 ± 0.037; in the experiment with Hexafluoroglutaric acid (20000 nM), -0.0775 ± 0.056; with Hexafluoroglutaric acid (60000 nM), -0.102 ± 0.0078; in experiment [1] (6700 nM), -0.049 ± 0.073; in experiment [1] (20000 nM), -0.035 ± 0.076; in experiment [1] (60000 nM), -0.087 ± 0.016. Moreover, the “level (log10)” value with Azathioprine (1400 nM) is 0.0005 ± 0.12; in the experiment with Azathioprine (4200 nM) it was -0.077 ± 0.047; in the experiment with Azathioprine (13000 nM), -0.117 ± 0.059; in the experiment with Azathioprine (38000 nM) it was -0.311 ± 0.081; in experiment [2] (6700 nM) it was -0.0935 ± 0.016; in experiment [2] (20000 nM) it was -0.115 ± 0.03. The “level (log10)” value is -0.169 ± 0.1 in experiment [2] (60000 nM); -0.0725 ± 0.016 in experiment [3] (6700 nM); -0.121 ± 0.31 in experiment [3] (20000 nM); -0.023 ± 0.024 in experiment [4] (6700 nM); -0.042 ± 0.023 in experiment [4] (20000 nM); -0.561 ± 0.13 in experiment [4] (60000 nM).
